From patent US20220332701A1, “HETEROCYCLIC COMPOUNDS AS BCR-ABL INHIBITORS” (ASCENTAGE PHARMA (SUZHOU) CO., LTD., priority 2019, published 2022)

Legend:
BaF3(WT) = BaF3(WT) (Homo sapiens, UniProt P00519); assay: WST (CCK-8) anti-proliferation assay, BaF3 WT cells; conditions: read-out: BaF3(WT); anti-proliferative IC50, 72 h treatment, CCK-8, BaF3 WT
BaF3(T315I) = BaF3(T315I) (Homo sapiens, UniProt P00519, T315I, cells depend on it); assay: WST (CCK-8) anti-proliferation assay, BaF3 T315I cells; conditions: read-out: BaF3(T315I); anti-proliferative IC50, 72 h treatment, CCK-8, BaF3 T315I

| Structure (SMILES) | GI50 (BaF3(WT)) [nM] | GI50 (BaF3(T315I)) [nM] |
| --- | --- | --- |
| CC1CN(C(C)C)c2cc(C(=O)Nc3ccc(OC(F)(F)Cl)cc3)cc(-c3ccn[nH]3)c21 (centres unmarked) [III-1, N-(4-(chlorodifluoromethoxy)phenyl)-1-isopropyl-3-methyl-4-(1H-pyrazol-5-yl)indoline-6-carboxamide] | 119 | 3250 |
| CN1CC(C)(C)c2c(-c3ccn[nH]3)cc(C(=O)Nc3ccc(OC(F)(F)Cl)cc3)cc21 [III-2, N-(4-(chlorodifluoromethoxy)phenyl)-1,3,3-trimethyl-4-(1H-pyrazol-5-yl)indoline-6-carboxamide] | 78 | 2060 |
| CC1(C)CNc2cc(C(=O)Nc3ccc(OC(F)(F)Cl)cc3)cc(-c3ccn[nH]3)c21 [III-3, N-(4-(chlorodifluoromethoxy)phenyl)-3,3-dimethyl-4-(1H-pyrazol-5-yl)indoline-6-carboxamide] | 94 | 790 |
| CC(=O)N1CC(C)(C)c2c(-c3ccn[nH]3)cc(C(=O)Nc3ccc(OC(F)(F)Cl)cc3)cc21 [III-4, 1-acetyl-N-(4-(chlorodifluoromethoxy)phenyl)-3,3-dimethyl-4-(1H-pyrazol-5-yl)indoline-6-carboxamide] | 22 | 176 |
| CC1(C)CN(S(C)(=O)=O)c2cc(C(=O)Nc3ccc(OC(F)(F)Cl)cc3)cc(-c3ccn[nH]3)c21 [III-5, N-(4-(chlorodifluoromethoxy)phenyl)-3,3-dimethyl-1-(methylsulfonyl)-4-(1H-pyrazol-5-yl)indoline-6-carboxamide] | 61 | 418 |
| CN1C(=O)c2cc(C(=O)Nc3ccc(OC(F)(F)Cl)cc3)cc(-c3ccn[nH]3)c2C1(C)C [IV-1, N-(4-(chlorodifluoromethoxy)phenyl)-1,1,2-trimethyl-3-oxo-7-(1H-pyrazol-5-yl)isoindoline-5-carboxamide] | 24 | 244 |
| Cc1ccc(-c2cc(C(=O)Nc3ccc(OC(F)(F)Cl)cc3)cc3c2C(C)(C)N(C)C3=O)o1 [IV-2, N-(4-(chlorodifluoromethoxy)phenyl)-1,1,2-trimethyl-7-(5-methylfuran-2-yl)-3-oxoisoindoline-5-carboxamide] | 399 | 3340 |
| Cc1ccc(-c2cc(C(=O)Nc3ccc(OC(F)(F)Cl)cc3)cc3c2C(C)(C)N(C)C3=O)s1 [IV-3, N-(4-(chlorodifluoromethoxy)phenyl)-1,1,2-trimethyl-7-(5-methylthiophen-2-yl)-3-oxoisoindoline-5-carboxamide] | 132 | 2380 |
| CN1C(=O)c2cc(C(=O)Nc3ccc(OC(F)(F)Cl)cc3)cc(-c3ccncc3)c2C1(C)C [IV-4, N-(4-(chlorodifluoromethoxy)phenyl)-1,1,2-trimethyl-3-oxo-7-(pyridin-4-yl)isoindoline-5-carboxamide] | 129 | 581 |
| CC1(C)c2c(cc(C(=O)Nc3ccc(OC(F)(F)Cl)cc3)cc2-c2ccn[nH]2)C(=O)N1CCO [IV-5, N-(4-(chlorodifluoromethoxy)phenyl)-2-(2-hydroxyethyl)-1,1-dimethyl-3-oxo-7-(1H-pyrazol-5-yl)isoindoline-5-carboxamide] | 121 | 1060 |
| CN1CCN(CCN2C(=O)c3cc(C(=O)Nc4ccc(OC(F)(F)Cl)cc4)cc(-c4ccn[nH]4)c3C2(C)C)CC1 [IV-6, N-(4-(chlorodifluoromethoxy)phenyl)-1,1-dimethyl-2-(2-(4-methylpiperazin-1-yl)ethyl)-3-oxo-7-(1H-pyrazol-5-yl)isoindoline-5-carboxamide] | 501 | 1570 |
| CC1(C)c2c(cc(C(=O)Nc3ccc(OC(F)(F)Cl)cc3)cc2-c2ccn[nH]2)C(=O)N1CCN1CCS(=O)(=O)CC1 [IV-7, N-(4-(chlorodifluoromethoxy)phenyl)-2-(2-(1,1-dioxidothiomorpholino)ethyl)-1,1-dimethyl-3-oxo-7-(1H-pyrazol-5-yl)isoindoline-5-carboxamide] | 364 | 1750 |
| CC1(C)c2c(cc(C(=O)Nc3ccc(OC(F)(F)Cl)cc3)cc2-c2ccn[nH]2)C(=O)N1CCN1CC[C@@H](O)C1 [IV-8, (R)—N-(4-(chlorodifluoromethoxy)phenyl)-2-(2-(3-hydroxypyrrolidin-1-yl)ethyl)-1,1-dimethyl-3-oxo-7-(1H-pyrazol-5-yl)isoindoline-5-carboxamide] | 100 | 6020 |
| CN1C(=O)c2cc(C(=O)Nc3ccc(OC(F)(F)Cl)cc3)cc(-c3cccnc3)c2C1(C)C [IV-9, N-(4-(chlorodifluoromethoxy)phenyl)-1,1,2-trimethyl-3-oxo-7-(pyridin-3-yl)isoindoline-5-carboxamide] | 77 | 107 |
| CC(C)N1CCCc2cc(C(=O)Nc3ccc(OC(F)(F)Cl)cc3)cc(-c3ccn[nH]3)c21 [IX-1, N-(4-(chlorodifluoromethoxy)phenyl)-1-isopropyl-8-(1H-pyrazol-5-yl)-1,2,3,4-tetrahydroquinoline-6-carboxamide] | 235 | 1050 |
| CN1CCCc2cc(C(=O)Nc3ccc(OC(F)(F)Cl)cc3)cc(-c3ccn[nH]3)c21 [IX-2, N-(4-(chlorodifluoromethoxy)phenyl)-1-methyl-8-(1H-pyrazol-5-yl)-1,2,3,4-tetrahydroquinoline-6-carboxamide] | 162 | 332 |
| CC(C)N1CCOc2cc(C(=O)Nc3ccc(OC(F)(F)Cl)cc3)cc(-c3ccn[nH]3)c21 [IX-3, N-(4-(chlorodifluoromethoxy)phenyl)-4-isopropyl-5-(1H-pyrazol-5-yl)-3,4-dihydro-2H-benzo[b][1,4] oxazine-7-carboxamide] | 80 | 535 |
| CC1CN(C(C)C)c2c(cc(C(=O)Nc3ccc(OC(F)(F)Cl)cc3)cc2-c2ccn[nH]2)O1 (centres unmarked) [IX-4, N-(4-(chlorodifluoromethoxy)phenyl)-4-isopropyl-2-methyl-5-(1H-pyrazol-5-yl)-3,4-dihydro-2H-benzo[b][1,4]oxazine-7-carboxamide] | 33 | 3110 |
| CC(C)N1CC(C)(C)Oc2cc(C(=O)Nc3ccc(OC(F)(F)Cl)cc3)cc(-c3ccn[nH]3)c21 [IX-5, N-(4-(chlorodifluoromethoxy)phenyl)-4-isopropyl-2,2-dimethyl-5-(1H-pyrazol-5-yl)-3,4-dihydro-2H-benzo[b][1,4]oxazine-7-carboxamide] | 17 | 333 |

Now from value to compound:

| GI50 (BaF3(WT)) [nM] | GI50 (BaF3(T315I)) [nM] | Structure (SMILES) |
| --- | --- | --- |
| 45 | 71 | CC1(C)C(=O)Nc2cc(C(=O)Nc3ccc(OC(F)(F)Cl)cc3)cc(-c3ccn[nH]3)c21 [V-1, N-(4-(chlorodifluoromethoxy)phenyl)-3,3-dimethyl-2-oxo-4-(1H-pyrazol-5-yl)indoline-6-carboxamide] |
| 55 | 354 | CN1C(=O)C(C)(C)c2c(-c3ccn[nH]3)cc(C(=O)Nc3ccc(OC(F)(F)Cl)cc3)cc21 [V-2, N-(4-(chlorodifluoromethoxy)phenyl)-1,3,3-trimethyl-2-oxo-4-(1H-pyrazol-5-yl)indoline-6-carboxamide] |
| 22 | 136 | O=C(Nc1ccc(OC(F)(F)Cl)cc1)c1cc2c(c(-c3ccn[nH]3)c1)C1(CCCC1)C(=O)N2 [V-3, N-(4-(chlorodifluoromethoxy)phenyl)-2′-oxo-4′-(1H-pyrazol-5-yl)spiro[cyclopentane-1,3′-indoline]-6′-carboxamide] |
| 43 | 292 | O=C(Nc1ccc(OC(F)(F)Cl)cc1)c1cc2c(c(-c3ccn[nH]3)c1)C1(CC=CC1)C(=O)N2 [V-4, N-(4-(chlorodifluoromethoxy)phenyl)-2′-oxo-4′-(1H-pyrazol-5-yl)spiro[cyclopentane-1,3′-indolin]-3-ene-6′-carboxamide] |
| 144 | 335 | O=C(Nc1ccc(OC(F)(F)Cl)cc1)c1cc2c(c(-c3cc[nH]n3)c1)C1(CCC(O)C1)C(=O)N2 (centres unmarked) [V-5, N-(4-(chlorodifluoromethoxy)phenyl)-3-hydroxy-2′-oxo-4′-(1H-pyrazol-5-yl)spiro[cyclopentane-1,3′-indoline]-6′-carboxamide] |
| 364 | 2860 | CC1(C)C(=O)N(CCO)c2cc(C(=O)Nc3ccc(OC(F)(F)Cl)cc3)cc(-c3ccn[nH]3)c21 [V-6, N-(4-(chlorodifluoromethoxy)phenyl)-1-(2-hydroxyethyl)-3,3-dimethyl-2-oxo-4-(1H-pyrazol-5-yl)indoline-6-carboxamide] |
| 324 | 1540 | CN(C)CCN1C(=O)C(C)(C)c2c(-c3ccn[nH]3)cc(C(=O)Nc3ccc(OC(F)(F)Cl)cc3)cc21 [V-7, N-(4-(chlorodifluoromethoxy)phenyl)-1-(2-(dimethylamino)ethyl)-3,3-dimethyl-2-oxo-4-(1H-pyrazol-5-yl)indoline-6-carboxamide] |
| 1550 |  | CN1CCC2(C1)C(=O)Nc1cc(C(=O)Nc3ccc(OC(F)(F)Cl)cc3)cc(-c3cc[nH]n3)c12 (centres unmarked) [V-8, N-(4-(chlorodifluoromethoxy)phenyl)-1′-methyl-2-oxo-4-(1H-pyrazol-3-yl)spiro[indoline-3,3′-pyrrolidine]-6-carboxamide] |
| 108 | 910 | O=C(Nc1ccc(OC(F)(F)Cl)cc1)c1cc2c(c(-c3ccn[nH]3)c1)C1(CC(O)C(O)C1)C(=O)N2 (centres unmarked) [V-9, N-(4-(chlorodifluoromethoxy)phenyl)-3,4-dihydroxy-2′-oxo-4′-(1H-pyrazol-5-yl)spiro[cyclopentane-1,3′-indoline]-6′-carboxamide] |
| 110 | 921 | CN1CCC2(CC1)C(=O)Nc1cc(C(=O)Nc3ccc(OC(F)(F)Cl)cc3)cc(-c3ccn[nH]3)c12 [V-10, N-(4-(chlorodifluoromethoxy)phenyl)-1′-methyl-2-oxo-4-(1H-pyrazol-5-yl)spiro[indoline-3,4′-piperidine]-6-carboxamide] |
| 8 | 40 | O=C(Nc1ccc(OC(F)(F)Cl)cc1)c1cc2c(c(-c3ccn[nH]3)c1)C1(CCCCC1)C(=O)N2 [V-11, N-(4-(chlorodifluoromethoxy)phenyl)-2′-oxo-4′-(1H-pyrazol-5-yl)spiro[cyclohexane-1,3′-indoline]-6′-carboxamide] |
